Results published in ChEMBL document CHEMBL1201862, “PubChem BioAssay data set” (2004).
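Values below derive from 48-hour exposures of cells grown in 96-well plates, with endpoints linearly interpolated between the two concentrations bracketing the appropriate inhibition level. Abbreviation: GI50, concentration required for 50% inhibition of growth.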 The source made the active and inactive calls. Cut-off read from the data, not from the text of the source: active = GI50 up to about 1.1 µM and inactive = higher.

How the values were obtained:
Assay in all cases: DTP human tumour cell line panel, 48 h
[1] = tested on: PC-3
[2] = tested on: ACHN
[3] = tested on: CAKI-1
[4] = tested on: DU-145
[5] = tested on: SNB-19
[6] = tested on: SNB-75
[7] = tested on: MDA-MB-435
[8] = tested on: SK-OV-3
[9] = tested on: SK-MEL-28
[10] = tested on: UACC-62
[11] = tested on: NCI-H23
[12] = tested on: BT-549
[13] = tested on: MDA-N
[14] = tested on: SF-268
[15] = tested on: NCI/ADR-RES
[16] = tested on: UO-31
[17] = tested on: OVCAR-4
[18] = tested on: OVCAR-8
[19] = tested on: K562
[20] = tested on: TK-10
[21] = tested on: Malme-3M
[22] = tested on: MDA-MB-231
[23] = tested on: SK-MEL-2
[24] = tested on: A498
[25] = tested on: RXF 393
[26] = tested on: SN12C
[27] = tested on: MCF7
[28] = tested on: HOP-62
[29] = tested on: M14
[30] = tested on: HL-60
[31] = tested on: SF-295
[32] = tested on: Hs-578T
[33] = tested on: OVCAR-5
[34] = tested on: HCC 2998
[35] = tested on: SK-MEL-5
[36] = tested on: SW-620
[37] = tested on: NCI-H460
[38] = tested on: SF-539
[39] = tested on: IGROV-1
[40] = tested on: HT-29
[41] = tested on: LOX IMVI
[42] = tested on: A549
[43] = tested on: HCT-15
[44] = tested on: KM12
[45] = tested on: NCI-H226
[46] = tested on: T47D
[47] = tested on: EKVX
[48] = tested on: NCI-H522
[49] = tested on: RPMI-8226
[50] = tested on: OVCAR-3
[51] = tested on: HOP-92
[52] = tested on: COLO 205
[53] = tested on: HCT-116
[54] = tested on: UACC-257
[55] = tested on: CCRF-CEM
[56] = tested on: U-251
[57] = tested on: MOLT-4
[58] = tested on: SR
[59] = tested on: 786-0

Cn1c2ccc([N+](=O)[O-])cc2c(=O)n1Cc1ccccc1F was tested, and the GI50 [1] was 55.7 µM (inactive), the GI50 [2] was 53.3 µM (inactive) and the GI50 [3] was 99.3 µM (inactive). The GI50 [4] was 51.2 µM (inactive), the GI50 [5] was 33.5 µM (inactive) and the GI50 [6] was 20.9 µM (inactive). For the same compound, the GI50 [7] was 74.3 µM (inactive), the GI50 [8] was > 100 µM (inactive) and the GI50 [9] was 47.5 µM (inactive). The GI50 [10] was 48.5 µM (inactive), the GI50 [11] was 48 µM (inactive) and the GI50 [12] was > 100 µM (inactive). The GI50 [13] was 27.4 µM (inactive), the GI50 [14] was 36.6 µM (inactive) and the GI50 [15] was 23 µM (inactive). For the same compound, the GI50 [16] was 37.9 µM (inactive), the GI50 [17] was 47.8 µM (inactive) and the GI50 [18] was 28.6 µM (inactive). The GI50 [19] was 38.5 µM (inactive), the GI50 [20] was 34 µM (inactive) and the GI50 [21] was 46.8 µM (inactive). The GI50 [22] was 34.2 µM (inactive), the GI50 [23] was 53.8 µM (inactive) and the GI50 [24] was 37.2 µM (inactive). For the same compound, the GI50 [25] was 61 µM (inactive), the GI50 [26] was > 100 µM (inactive) and the GI50 [27] was > 100 µM (inactive). The GI50 [28] was 57 µM (inactive), the GI50 [29] was 25.4 µM (inactive) and the GI50 [30] was 64.4 µM (inactive). The GI50 [31] was 54.1 µM (inactive), the GI50 [32] was 25.8 µM (inactive) and the GI50 [33] was 46.3 µM (inactive). For the same compound, the GI50 [34] was 70.8 µM (inactive), the GI50 [35] was 38.3 µM (inactive) and the GI50 [36] was > 100 µM (inactive). For the same compound, the GI50 [37] was 40.1 µM (inactive), the GI50 [38] was 25.2 µM (inactive) and the GI50 [39] was 35.1 µM (inactive). The GI50 [40] was 54.7 µM (inactive), the GI50 [41] was 31.9 µM (inactive) and the GI50 [42] was 44.3 µM (inactive). For the same compound, the GI50 [43] was 40.5 µM, the GI50 [44] was 35.3 µM (inactive) and the GI50 [45] was 29.4 µM (inactive). For the same compound, the GI50 [46] was 19.4 µM (inactive), the GI50 [47] was 41.5 µM (inactive) and the GI50 [48] was 24.5 µM (inactive). The GI50 [49] was > 100 µM (inactive), the GI50 [50] was 40.8 µM (inactive) and the GI50 [51] was 27.7 µM (inactive). The GI50 [52] was 39.6 µM (inactive), the GI50 [53] was 29.1 µM (inactive) and the GI50 [54] was 42.4 µM (inactive). For the same compound, the GI50 [55] was 46.6 µM (inactive), the GI50 [56] was 37.7 µM (inactive) and the GI50 [57] was 45.8 µM (inactive). The GI50 [58] was 59.8 µM (inactive) and the GI50 [59] was 49.5 µM (inactive).
